From PubChem BioAssay AID2305 (GlaxoSmithKline (GSK), 2010)

tested on: P. falciparum 3D7 growth, pLDH absorbance; experiment: P. falciparum 3D7 growth inhibition, dose response, strain 3D7 (AID 2305)

In order of rising IC50:
1. Clc1ccc2nccc(N3CCC(CN4CCC(c5c[nH]c6ccccc56)CC4)CC3)c2c1  30 nM
2. Cc1[nH]c(C)c(-c2ccc(-c3ccc(Cl)cc3)nc2)c(=O)c1Cl  110 nM
3. Cc1cc(C)n2nc(C(=O)Nc3cc(C(F)(F)F)ccc3N3CCOCC3)nc2n1  120 nM
4. COc1ccccc1-n1ccnc1SCC(=O)Nc1cccc(C(F)(F)F)c1  160 nM
5. O=C(Nc1ccc(Br)cc1)c1cc(Br)ccc1NS(=O)(=O)c1ccc(C(F)(F)F)cc1  180 nM
6. Oc1ccc(Nc2nc(NCc3ccccc3)c3ccccc3n2)cc1  190 nM
7. COc1ccc2nc(C)cc(NN=Cc3ccc(F)cc3)c2c1  190 nM
8. COc1cc(-c2cnc(N)c(-c3nc4ccccc4[nH]3)c2)cc(OC)c1OC  190 nM
9. O=C(NC1CCN(c2ccnc3cc(Cl)ccc23)C1)c1ccc(F)cc1 (stereo not drawn)  190 nM
10. N#Cc1ccc2c(c1)CCN(CCCn1c(-c3ccc4ccccc4c3)nc3ccncc31)CC2  200 nM
11. N=C1SC(=Cc2cn[nH]c2-c2ccc(F)cc2)C(=O)N1c1nccs1  220 nM
12. CSc1ccc(C=CC(=O)NC(=O)c2ccccc2O)cc1  290 nM
13. CC(C)Oc1ccc(C=CC(=O)Nc2noc3ccccc23)cc1  290 nM
14. O=C(Cn1cc(C=C2SC(=NC3CCCC3)N(C3CCCC3)C2=O)c2ccccc21)N1CCCC1  300 nM
15. c1cncc(Oc2ccc(Nc3ccnc4cc(-c5cccc(CN6CCOCC6)c5)ccc34)cc2)c1  310 nM
16. O=C(Nc1ccc2c(c1)CCN2C1CCN(Cc2csc3ccccc23)C1)c1ccco1 (stereo not drawn)  320 nM
17. CCn1c(Sc2ccc(C#N)c([N+](=O)[O-])c2)nnc1-c1cc(OC)cc(OC)c1  570 nM
18. COc1ccc2nccc(NC(=O)C3CCC(NCc4ccc5c(c4)NC(=O)CS5)CC3)c2c1 (stereo not drawn)  590 nM
19. Cc1cc(NC(=O)NCCN2CCC(NS(=O)(=O)c3ccc(Br)cc3)C2)c2ccccc2n1 (stereo not drawn)  600 nM
20. CCOC(=O)c1c(-c2ccccc2)c(C(=O)OCC)n2ccccc12  610 nM
21. CCCCNc1c(C(=O)OCC)c(C)nc2c1[nH]c1ccccc12  680 nM
22. O=C(NC1CCCCC1)N(Cc1ccc(-c2cccc(CNCc3ccc4c(c3)OCO4)c2)cc1)C1CCN(Cc2ccccc2)CC1  690 nM
23. COc1cc(Nc2ccnc3ccc(C(F)(F)F)cc23)cc(OC)c1OC  700 nM
24. O=C(CCc1cnc[nH]1)Nc1ccc(-c2ccc(-c3nc4ccccc4[nH]3)cc2)cc1  710 nM
25. CN(C)C(=O)CC(=O)NCc1cccc(Cl)c1  710 nM
26. COC(=O)c1ccc2nc(-c3ccc(/C=C/C(=O)NC4CCN(Cc5ccccc5)CC4)cc3)[nH]c2c1  710 nM
27. CN1CCN(c2cccc(Nc3nccc(NCC(O)c4ccccc4)n3)c2)CC1 (stereo not drawn)  720 nM
28. Nc1nc(N)c2c3c(ccc2n1)NCCC3  730 nM
29. O=C(/C=C/c1ccc(Cl)c(Cl)c1)N1CCC(CN2CCC(c3cn(CC(=O)N4CCCCC4)c4ccccc34)CC2)CC1  750 nM
30. O=C(/C=C/c1ccccc1Cl)Nc1ccc(Br)c(OCCN2CCN(CCN3CCOCC3)CC2)c1  760 nM
31. Cc1cc(NN=Cc2ccccn2)c2cc(F)ccc2n1  760 nM
32. CCCCCCn1c(Sc2ccc(C#N)c([N+](=O)[O-])c2)nnc1-c1cc(OC)cc(OC)c1  770 nM
33. COc1cc(Nc2ccnc3ccc(C(F)(F)F)cc23)ccc1OCCCc1ccccc1  770 nM
34. CCCCCC(C)C(C)c1cc(O)c2c(c1)OC(C)(C)c1cnccc1-2 (stereo not drawn)  770 nM
35. O=C(/C=C/c1ccc(Cl)c(Cl)c1)NCCCCCN1CCC(CCNC(=O)/C=C/c2cc(C(F)(F)F)ccc2F)CC1  770 nM
36. COC(=O)[C@@H](NC(=O)[C@@H](Nc1ccc(C#N)c2ccccc12)C(C)(C)C)c1ccc(O)cc1  780 nM
37. O=C(/C=C/c1ccc(Cl)c(Cl)c1)NCCCCCN1CCC(c2c[nH]c3ccccc23)CC1  780 nM
38. Cc1ccccc1C1CCN(C2CCC(NC(=O)/C=C/c3c[nH]c4ccccc34)CC2)CC1 (stereo not drawn)  810 nM
39. Cc1cccc(NC(=O)c2ccc(C(=O)NC3CCN(CC4CCCCC4)CC3)cc2)c1  810 nM
40. CCc1c[nH]c2c(N(c3ccccc3)S(C)(=O)=O)cc(C(=O)N[C@@H](Cc3ccccc3)[C@H](O)CNC(C)(C)CCCC(C)C)cc12  820 nM
41. Nc1nc(N)c2c(Cc3ccccc3)cccc2n1  830 nM
42. Fc1ccc2[nH]c3c(NCCN4CCCCC4)ncnc3c2c1  830 nM
43. CCCCCCCCCn1c(NCc2cc(Cl)ccc2O)nc2ccccc21  830 nM
44. COc1cccc(-c2cc(C(=O)Nc3ccc4nc(-c5ccccc5)[nH]c4c3)[nH]n2)c1  840 nM
45. O=C(NCc1ccc(Cl)cc1)c1ccc(C(=O)NCC2CCCN2CC2CCCCC2)cc1 (stereo not drawn)  850 nM
46. COc1cc(-c2nc3c4ccccc4c4ccccc4c3[nH]2)cc(OC)c1OC  850 nM
47. COc1ccccc1CNc1ccnc(N2CC(Oc3ccc(F)cc3)C2)n1  850 nM
48. NCc1ccc(-c2ccc3c(N)nccc3c2)cc1  890 nM
49. CCOc1ccc2c(NN=Cc3cccc(OC)c3OC)cc(C)nc2c1  900 nM
50. COc1cc(Cc2cnc(N)nc2N)ccc1OCc1ccc(F)c(F)c1  910 nM
51. COC(=O)c1cccc(CN(CCC(O)(C(F)(F)F)C(F)(F)F)C(=O)CC2CCCC2)c1  910 nM
52. NC(=O)c1ccsc1NC(=O)CNC(c1ccccc1)c1ccccc1  940 nM
53. CN(CCNCc1ccc(-c2cccc(-c3nc4ccccc4[nH]3)c2)cc1)S(C)(=O)=O  950 nM
54. Cc1ccc(Nc2nc3cc(N(C)c4ccnc(Nc5cccc(CS(C)(=O)=O)c5)n4)ccc3o2)cc1  970 nM
55. Cc1cc(-c2cccc(CNC3CCN(C)CC3)c2)ccc1S(=O)(=O)NCCN1CCCC1  980 nM
56. Cn1cncc1CCN(Cc1ccc(-c2ccc(C(F)(F)F)cc2)cc1)C(=O)Cn1c(SCc2cccc(F)c2F)cc(=O)c2ccccc21  990 nM
57. O=C(Nc1ccccc1)c1cnc[nH]1  990 nM
58. Cc1ccc(C(=O)Nc2ccc(OC3CCN(CCC(C)C)C3)c(Cl)c2)cc1 (stereo not drawn)  990 nM
59. CCNc1cc(C(=O)N[C@@H](Cc2ccccc2)[C@H](O)CNC2(CC(C)C)CC2)cc(N2CCCCS2(=O)=O)c1  1020 nM
60. COc1ccccc1CCN(C)CCN1CCC(NC(=O)c2ccc(-c3ccc(C(F)(F)F)cc3)cc2)CC1  1030 nM
61. CN(C)C(=O)c1cc(CNCc2ccccc2)ccc1-c1cccc(CNCc2ccc(-c3ccccc3)cc2)c1  1050 nM
62. CN(C)CC(=O)NCC(NCCCNc1cc(=O)c2ccccc2[nH]1)c1cc(Br)cc(Br)c1 (stereo not drawn)  1050 nM
63. O=C1NC(=S)NC1=CC=Cc1ccc([N+](=O)[O-])o1  1070 nM
64. CCNC(=O)N1CCc2ccc(Oc3nc(NCc4ccccc4OC)ncc3C)cc2CC1  1070 nM
65. CCCCNCc1ccc(OCc2cccc(COc3ccc(CNCCCC)cc3I)c2)c(I)c1  1120 nM
66. COc1ccc(CCNc2nc(N)c3cc(OC)c(OC)cc3n2)cc1  1120 nM
67. Cc1nc(-c2cccc(C(=O)Nc3cnc4ccccc4c3)c2)no1  1160 nM
68. CO/C(=C\C=C\c1cc2cc(Cl)c(Cl)cc2[nH]1)C(=O)NCC(C)(C)CN(C)C  1160 nM
69. Cc1cccc2[nH]c(-c3cccc(-c4ccc(C(=O)NCCc5ccc(O)c(=O)[nH]5)cc4)c3)nc12  1190 nM
70. O=C(COC(=O)c1cccc(S(=O)(=O)N2CCc3ccccc32)c1)NNC(=O)c1cccs1  1250 nM
71. CC1CN(c2ccc(C(=O)NCC3CC3)cc2NC(=O)OCc2ccccc2)CC(C)O1 (stereo not drawn)  1300 nM
72. Cc1cc(N2CCOCC2)nc(Nc2ccc(NC(=O)c3cccc4ccccc34)cc2)n1  1300 nM
73. CC(C)c1ccc(NS(=O)(=O)c2cccc(C(=O)NC3CCN(CC4CCCCC4)CC3)c2)cc1  1300 nM
